Reference: PubChem BioAssay (NCI)
Several values for one entry are separate records, joined by “and”; a condition that tells them apart may be missing. Identical values can stand only once.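 Cultured in 96-well plates, cells were exposed to test compound for 48 hours across five concentrations. At the GI50, growth is halved. TGI denotes the concentration required for complete inhibition of growth.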

Legend:
Assay in all cases: DTP human tumour cell line panel, 48 h
[1] = test system: LOX IMVI melanoma
[2] = test system: MOLT-4 leukemia
[3] = test system: MCF7 breast
[4] = test system: MDA-MB-435
[5] = test system: OVCAR-4 ovarian
[6] = test system: SNB-75 CNS
[7] = test system: A498 renal
[8] = test system: RXF 393 renal
[9] = test system: MALME-3M melanoma
[10] = test system: IGROV1 ovarian

In the case of `COC(=O)C(Br)(C(=O)OC)C(Br)C(Br)C(Br)c1ccccc1` (stereo unspecified), the GI50 [1] is reported as 1.85 µM, the TGI [1] is reported as 3.66 µM and the GI50 [2] is reported as 4.24 µM. The TGI [2] was 19.7 µM, the GI50 [3] was 1.67 µM and the TGI [3] was 5.07 µM. It also gave a GI50 [4] of 2.48 µM, a TGI [4] of 7.36 µM and a GI50 [5] of 1.82 µM. It also gave a TGI [5] of 3.96 µM, a GI50 [6] of 2.07 µM and a TGI [6] of 7.08 µM. For the same molecule, the GI50 [7] was 15.5 µM, the TGI [7] was 29.4 µM and the GI50 [8] was 1.72 µM. The TGI [8] was 3.26 µM, the GI50 [9] was 2.09 µM and the TGI [9] was 4.46 µM. The GI50 [10] was 1.06 µM and the TGI [10] was 3.45 µM.
`CN1CCC(n2cnc(-c3ccc(F)cc3)c2-c2ccnc(Nc3ccccc3)n2)CC1` was tested, and the GI50 [1] was 5.78 µM, the TGI [1] was > 25 µM and the GI50 [2] was 12 µM. For the same molecule, the TGI [2] was > 25 µM, the GI50 [3] was 1.83 µM and the TGI [3] was > 25 µM. The GI50 [4] was 3.64 µM, the TGI [4] was 11.9 µM and the GI50 [5] was 8.12 µM. For the same molecule, the TGI [5] was > 25 µM, the GI50 [6] was 7.22 µM and the TGI [6] was 24.8 µM. The GI50 [7] was 7.77 µM, the TGI [7] was > 25 µM and the GI50 [8] was 10.5 µM. For the same molecule, the TGI [8] was > 25 µM, the GI50 [9] was 4.77 µM and the TGI [9] was 12.4 µM. For the same molecule, the GI50 [10] was 3.04 µM and the TGI [10] was > 13.1 µM.
`N#CC1=C(N)Oc2c(ccc3cccnc23)C1c1ccccc1` (stereo unspecified) was tested, and the TGI [1] was > 100 µM, the TGI [2] was 36.9 µM and the GI50 [3] was 0.406 µM. It also gave a TGI [3] of 58.1 µM, a GI50 [4] of 0.193 µM and a TGI [4] of 0.661 µM. It also gave a TGI [5] of 98.9 µM, a TGI [6] of 3.5 µM and a TGI [7] of 16.9 µM. For the same molecule, the TGI [8] was > 30.7 µM, the TGI [9] was > 67.5 µM and the TGI [10] was > 100 µM.
`O=C(Oc1c(Cl)c(Cl)c(Cl)c(Cl)c1Cl)C1CCCN1C(=O)OCc1ccccc1` (stereo unspecified) showed a GI50 [1] of 2.85 µM, a TGI [1] of 8.6 µM and a GI50 [2] of 3.1 µM. It also gave a TGI [2] of 9.07 µM, a GI50 [3] of 3.16 µM and a TGI [3] of 11.9 µM. It also gave a GI50 [4] of 4.11 µM, a TGI [4] of 16.6 µM and a GI50 [5] of 2.66 µM. It also gave a TGI [5] of 10.6 µM, a GI50 [6] of 2.66 µM and a TGI [6] of 10.2 µM. For the same molecule, the GI50 [7] was 1.99 µM, the TGI [7] was 5.81 µM and the GI50 [8] was 3.94 µM. It also gave a TGI [8] of 15.4 µM, a GI50 [9] of 3.62 µM and a TGI [9] of 11.4 µM. It also gave a GI50 [10] of 4 µM and a TGI [10] of 22 µM.
In the case of `CCN(CC)CCOc1ccccc1-n1c(C)ccc1-c1ccccc1`, the GI50 [1] is reported as 17.5 µM, the TGI [1] is reported as 34.5 µM and the GI50 [2] is reported as 13.9 µM. The TGI [2] was 33.3 µM, the GI50 [3] was 13 µM and the TGI [3] was 26.7 µM. For the same molecule, the GI50 [4] was 14.4 µM, the TGI [4] was 29.9 µM and the GI50 [5] was 12.2 µM. It also gave a TGI [5] of 25.7 µM, a GI50 [6] of 10.3 µM and a TGI [6] of 22.4 µM. For the same molecule, the GI50 [7] was 14.5 µM, the TGI [7] was 32 µM and the GI50 [8] was 5.31 µM. It also gave a TGI [8] of 20.1 µM, a GI50 [9] of 19.2 µM and a TGI [9] of 36.6 µM. It also gave a GI50 [10] of 14.8 µM and a TGI [10] of 31.8 µM.
`C=C(C)[C@@H]1CC[C@]2(COC(=O)c3ccccc3C(=O)O)CC[C@]3(C)[C@H](CC[C@@H]4[C@@]5(C)CC[C@H](OC(=O)c6ccccc6C(=O)O)C(C)(C)[C@@H]5CC[C@]43C)[C@@H]12` was tested, and the GI50 [1] was 24.6 µM, the TGI [1] was > 100 µM and the GI50 [2] was 56.7 µM. For the same molecule, the TGI [2] was > 100 µM, the GI50 [3] was > 100 µM and the TGI [3] was > 100 µM. For the same molecule, the GI50 [4] was 34.6 µM, the TGI [4] was > 100 µM and the GI50 [5] was 36.7 µM. The TGI [5] was > 100 µM, the GI50 [6] was 15.4 µM and the TGI [6] was 36 µM. The GI50 [7] was 40.6 µM, the TGI [7] was > 100 µM and the GI50 [8] was 22.6 µM. For the same molecule, the TGI [8] was 77.3 µM, the GI50 [9] was 60.8 µM and the TGI [9] was > 100 µM. For the same molecule, the GI50 [10] was 33.2 µM and the TGI [10] was > 100 µM.
For `NC(=O)/C=C/c1c[nH]c2nccnc12`, the TGI [1] was 4.63 µM, the TGI [2] was 1.38 µM and the TGI [3] was > 100 µM. It also gave a TGI [4] of 13.2 µM, a TGI [5] of 65.4 µM and a TGI [6] of 4.46 µM. The TGI [7] was 12.5 µM, the TGI [8] was 4.17 µM and the TGI [9] was 2.18 µM. For the same molecule, the TGI [10] was > 28.8 µM.
For `COc1ccc(-n2nc(C(=O)NCC(=O)Nc3nc4cc(OC)ccc4s3)c3ccccc3c2=O)cc1`, the GI50 [1] was 0.413 µM, the TGI [1] was 1.97 µM and the GI50 [2] was > 100 µM. For the same molecule, the TGI [2] was > 100 µM, the GI50 [3] was 1.35 µM and the TGI [3] was > 32 µM. The GI50 [4] was 0.641 µM, the TGI [4] was 14.3 µM and the GI50 [5] was 0.434 µM. The TGI [5] was 2.57 µM, the GI50 [6] was 0.554 µM and the TGI [6] was 2.08 µM. The GI50 [7] was 1.37 µM, the TGI [7] was 10.3 µM and the GI50 [8] was 0.698 µM. It also gave a TGI [8] of 2.07 µM, a GI50 [9] of 0.589 µM and a TGI [9] of 2.8 µM. For the same molecule, the GI50 [10] was 1.18 µM and the TGI [10] was > 25.3 µM.
For `O=C(Cc1ccc(-c2ccc(OCCN3CCOCC3)cc2)cn1)NCc1ccccc1`, the GI50 [1] was 0.0612 µM and 0.0636 µM, the TGI [1] was > 100 µM and the GI50 [2] was 0.0999 µM and 0.0685 µM. For the same molecule, the TGI [2] was > 100 µM, the GI50 [3] was < 0.0164 µM and 0.0356 µM and the TGI [3] was > 100 µM. The GI50 [4] was 0.0162 µM, the TGI [4] was 0.0392 µM and the TGI [5] was > 100 µM. The GI50 [6] was 0.0333 µM and 0.0218 µM, the TGI [6] was > 100 µM and the GI50 [7] was 0.0247 µM and 0.0277 µM. The TGI [7] was 0.331 µM and 0.0822 µM, the GI50 [8] was 0.0108 µM and the TGI [8] was 0.0497 µM. For the same molecule, the GI50 [9] was 0.15 µM, the TGI [9] was > 100 µM and the GI50 [10] was 0.0944 µM and 0.0708 µM. The TGI [10] was > 100 µM.
`CCN1C(=O)N[C@H]2[C@@H]3NC(=O)c4ccc(Cl)n4[C@@H]3C[C@]21O` showed a GI50 [1] of 0.279 µM, a TGI [1] of 1.3 µM and a GI50 [2] of 0.346 µM. For the same molecule, the TGI [2] was 2.37 µM, the GI50 [3] was 0.242 µM and the TGI [3] was 1.5 µM. It also gave a GI50 [4] of 1.05 µM, a TGI [4] of 11.1 µM and a GI50 [5] of 0.571 µM. The TGI [5] was 7.99 µM, the GI50 [6] was 0.663 µM and the TGI [6] was 7.63 µM. For the same molecule, the GI50 [7] was 1.82 µM, the TGI [7] was 6.16 µM and the GI50 [8] was 0.333 µM. For the same molecule, the TGI [8] was 2.69 µM, the GI50 [9] was 0.653 µM and the TGI [9] was 4.66 µM. The GI50 [10] was 0.471 µM and the TGI [10] was 6.46 µM.
`CCN(CC)CCC(CNc1c(C)cnc2cc(Cl)ccc12)c1ccc(Cl)c(Cl)c1` (stereo unspecified) was tested, and the GI50 [1] was 1.59 µM, the TGI [1] was 3.14 µM and the GI50 [2] was 2.88 µM. It also gave a TGI [2] of 10.1 µM, a GI50 [3] of 1.79 µM and a TGI [3] of 4.15 µM. It also gave a GI50 [4] of 1.77 µM, a TGI [4] of 3.4 µM and a GI50 [5] of 3.81 µM. The TGI [5] was 19.2 µM, the GI50 [6] was 3.9 µM and the TGI [6] was 18.7 µM. It also gave a GI50 [7] of 9.4 µM, a TGI [7] of 24.8 µM and a GI50 [8] of 2.86 µM. It also gave a TGI [8] of 11.4 µM, a GI50 [9] of 1.88 µM and a TGI [9] of 3.5 µM. For the same molecule, the GI50 [10] was 2.26 µM and the TGI [10] was 12.1 µM.
